Reference: ChEMBL document CHEMBL2203081 (Bioorg Med Chem Lett, 2012)
Calls of active or inactive are those of the source.

Columns and labels:
[1] = target: Leucine-rich repeat serine/threonine-protein kinase 2 (Homo sapiens) (UniProt Q5S007); conditions: HEK293, 0.03 to 3 uM
Description: Inhibition of GFP-tagged LRRK2 expressed in HEK293 cells assessed as inhibition of Ser910 autophosphorylation at 0.03 to 3 uM after 90 mins by immunoblotting method

[2] = target: Leucine-rich repeat serine/threonine-protein kinase 2 (Homo sapiens) (UniProt Q5S007); conditions: HEK293, 0.03 to 3 uM; remark: listed apart in the source
Description: Inhibition of GFP-tagged LRRK2 expressed in HEK293 cells assessed as inhibition of Ser935 autophosphorylation at 0.03 to 3 uM after 90 mins by immunoblotting method

[3] = target: Leucine-rich repeat serine/threonine-protein kinase 2 (Homo sapiens) (UniProt Q5S007); conditions: 0.03 to 3 uM
Description: Inhibition of LRRK2 in human lymphoblastoid cells assessed as inhibition of Ser910 autophosphorylation at 0.03 to 3 uM after 90 mins by immunoblot method

[4] = target: Leucine-rich repeat serine/threonine-protein kinase 2 (Homo sapiens) (UniProt Q5S007); conditions: 0.03 to 3 uM; remark: listed apart in the source
Description: Inhibition of LRRK2 in human lymphoblastoid cells assessed as inhibition of Ser935 autophosphorylation at 0.03 to 3 uM after 90 mins by immunoblot method

Measured: inhibition

Chain of Leucine-rich repeat serine/threonine-protein kinase 2 (Homo sapiens) (Q5S007 whole entry): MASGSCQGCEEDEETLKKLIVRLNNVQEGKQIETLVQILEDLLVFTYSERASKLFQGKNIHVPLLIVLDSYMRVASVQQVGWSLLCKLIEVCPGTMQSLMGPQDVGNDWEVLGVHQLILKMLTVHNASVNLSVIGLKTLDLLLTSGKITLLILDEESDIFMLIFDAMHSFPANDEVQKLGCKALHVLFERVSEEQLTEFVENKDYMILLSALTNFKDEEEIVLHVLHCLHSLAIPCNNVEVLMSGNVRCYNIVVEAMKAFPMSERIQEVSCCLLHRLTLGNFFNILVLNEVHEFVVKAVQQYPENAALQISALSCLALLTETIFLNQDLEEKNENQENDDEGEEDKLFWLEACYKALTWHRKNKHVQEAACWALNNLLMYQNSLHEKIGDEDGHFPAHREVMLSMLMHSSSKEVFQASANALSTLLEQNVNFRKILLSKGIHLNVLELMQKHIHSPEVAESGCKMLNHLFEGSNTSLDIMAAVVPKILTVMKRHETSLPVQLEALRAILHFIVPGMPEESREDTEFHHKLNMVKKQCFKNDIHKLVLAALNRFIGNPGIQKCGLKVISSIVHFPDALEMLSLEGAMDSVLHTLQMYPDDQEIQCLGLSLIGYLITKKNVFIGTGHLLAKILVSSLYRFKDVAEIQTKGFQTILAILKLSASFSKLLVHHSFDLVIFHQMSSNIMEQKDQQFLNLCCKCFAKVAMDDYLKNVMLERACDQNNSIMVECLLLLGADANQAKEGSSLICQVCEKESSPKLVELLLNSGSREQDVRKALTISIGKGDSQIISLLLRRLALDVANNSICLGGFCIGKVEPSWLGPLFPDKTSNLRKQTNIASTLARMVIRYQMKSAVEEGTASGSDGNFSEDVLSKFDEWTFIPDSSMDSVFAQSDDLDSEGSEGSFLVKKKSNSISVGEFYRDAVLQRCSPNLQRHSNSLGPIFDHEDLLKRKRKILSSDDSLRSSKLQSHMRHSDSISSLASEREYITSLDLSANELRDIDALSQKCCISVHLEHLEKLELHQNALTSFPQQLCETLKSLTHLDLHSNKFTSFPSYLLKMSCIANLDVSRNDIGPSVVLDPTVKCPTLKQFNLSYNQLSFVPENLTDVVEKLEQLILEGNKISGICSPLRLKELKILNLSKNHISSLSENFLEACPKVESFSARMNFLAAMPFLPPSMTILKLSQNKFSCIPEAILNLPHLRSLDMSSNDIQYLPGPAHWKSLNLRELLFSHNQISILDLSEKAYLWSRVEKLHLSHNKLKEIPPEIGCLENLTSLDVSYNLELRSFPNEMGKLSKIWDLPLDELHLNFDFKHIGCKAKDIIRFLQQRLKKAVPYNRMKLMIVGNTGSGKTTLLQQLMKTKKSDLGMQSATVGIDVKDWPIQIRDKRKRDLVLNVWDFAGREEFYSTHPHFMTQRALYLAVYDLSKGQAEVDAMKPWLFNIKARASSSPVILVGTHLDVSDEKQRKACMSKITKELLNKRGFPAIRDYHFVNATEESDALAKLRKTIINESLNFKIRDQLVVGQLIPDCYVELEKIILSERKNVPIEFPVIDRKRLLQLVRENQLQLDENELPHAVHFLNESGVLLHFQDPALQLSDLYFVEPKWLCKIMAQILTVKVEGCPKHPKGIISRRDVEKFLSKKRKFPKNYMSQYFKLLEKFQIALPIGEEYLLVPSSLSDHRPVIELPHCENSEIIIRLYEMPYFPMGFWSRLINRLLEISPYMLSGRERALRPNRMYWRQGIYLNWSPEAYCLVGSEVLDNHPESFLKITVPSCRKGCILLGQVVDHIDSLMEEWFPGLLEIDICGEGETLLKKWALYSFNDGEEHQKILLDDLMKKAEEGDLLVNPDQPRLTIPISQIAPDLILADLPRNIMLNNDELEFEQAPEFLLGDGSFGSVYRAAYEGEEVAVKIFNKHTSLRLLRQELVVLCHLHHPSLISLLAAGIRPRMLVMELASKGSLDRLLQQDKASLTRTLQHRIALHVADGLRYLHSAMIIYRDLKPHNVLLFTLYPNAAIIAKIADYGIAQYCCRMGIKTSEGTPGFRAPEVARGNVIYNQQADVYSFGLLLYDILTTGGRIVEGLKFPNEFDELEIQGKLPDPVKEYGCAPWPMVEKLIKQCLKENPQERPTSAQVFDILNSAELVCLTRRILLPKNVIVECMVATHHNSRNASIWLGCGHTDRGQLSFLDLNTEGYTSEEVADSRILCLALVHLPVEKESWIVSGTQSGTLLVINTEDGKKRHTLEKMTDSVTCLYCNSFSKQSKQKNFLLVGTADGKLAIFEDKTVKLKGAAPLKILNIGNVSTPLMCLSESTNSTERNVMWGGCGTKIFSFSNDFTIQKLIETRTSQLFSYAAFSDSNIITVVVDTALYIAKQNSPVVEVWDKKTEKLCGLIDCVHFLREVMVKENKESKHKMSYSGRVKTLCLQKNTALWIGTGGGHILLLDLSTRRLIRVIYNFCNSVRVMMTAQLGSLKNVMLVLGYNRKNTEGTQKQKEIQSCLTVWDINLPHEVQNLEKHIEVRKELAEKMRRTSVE

COc1cc(C(=O)N2CCC(N3CCN(C)CC3)CC2)ccc1Nc1ncc2c(n1)N(C)c1ccccc1C(=O)N2C
active: [1] | [2] | [3] | [4]
